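All cell lines were grown in 96-well plates and treated with compound for 48 hours. Here, GI50 denotes the concentration required for 50% inhibition of growth.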 The source made the active and inactive calls. Cut-off read from the data, not from the text of the source: active = GI50 up to about 1.1 µM and inactive = higher.
Experiments:
Experiment in all cases: NCI tumour cell line growth inhibition, 48 h
MDA-MB-435 = test system: MDA-MB-435
OVCAR-4 = test system: OVCAR-4
SK-OV-3 = test system: SK-OV-3
SF-295 = test system: SF-295
SK-MEL-2 = test system: SK-MEL-2
Hs-578T = test system: Hs-578T
ACHN = test system: ACHN
NCI-H23 = test system: NCI-H23
M14 = test system: M14
SK-MEL-28 = test system: SK-MEL-28
NCI-H522 = test system: NCI-H522
OVCAR-3 = test system: OVCAR-3
DU-145 = test system: DU-145
NCI/ADR-RES = test system: NCI/ADR-RES
LOX IMVI = test system: LOX IMVI
OVCAR-5 = test system: OVCAR-5
UACC-257 = test system: UACC-257
KM12 = test system: KM12
RXF 393 = test system: RXF 393
MOLT-4 = test system: MOLT-4
SK-MEL-5 = test system: SK-MEL-5
SN12C = test system: SN12C
HCT-116 = test system: HCT-116
A549 = test system: A549
U-251 = test system: U-251
COLO 205 = test system: COLO 205
K562 = test system: K562
UO-31 = test system: UO-31
IGROV-1 = test system: IGROV-1
UACC-62 = test system: UACC-62
SW-620 = test system: SW-620
HT-29 = test system: HT-29
SNB-19 = test system: SNB-19
T47D = test system: T47D
HCT-15 = test system: HCT-15
TK-10 = test system: TK-10
786-0 = test system: 786-0
MDA-MB-231 = test system: MDA-MB-231
BT-549 = test system: BT-549
RPMI-8226 = test system: RPMI-8226
SF-539 = test system: SF-539
CAKI-1 = test system: CAKI-1
MDA-N = test system: MDA-N
A498 = test system: A498
SR = test system: SR
HCC 2998 = test system: HCC 2998
PC-3 = test system: PC-3
OVCAR-8 = test system: OVCAR-8
HOP-62 = test system: HOP-62
HOP-92 = test system: HOP-92
NCI-H226 = test system: NCI-H226
HL-60 = test system: HL-60
NCI-H460 = test system: NCI-H460
Malme-3M = test system: Malme-3M
EKVX = test system: EKVX
MCF7 = test system: MCF7
SF-268 = test system: SF-268
CCRF-CEM = test system: CCRF-CEM
SNB-75 = test system: SNB-75

For `O=C(O)c1cc(-c2ccncc2)nc2ccccc12`, the GI50 (MDA-MB-435) was > 100 µM (inactive), the GI50 (OVCAR-4) was > 100 µM (inactive) and the GI50 (SK-OV-3) was > 100 µM (inactive). The GI50 (SF-295) was > 100 µM (inactive), the GI50 (SK-MEL-2) was > 100 µM (inactive) and the GI50 (Hs-578T) was > 100 µM (inactive). The GI50 (ACHN) was > 100 µM (inactive), the GI50 (NCI-H23) was > 100 µM (inactive) and the GI50 (M14) was > 100 µM (inactive). The GI50 (SK-MEL-28) was > 100 µM (inactive), the GI50 (NCI-H522) was > 100 µM (inactive) and the GI50 (OVCAR-3) was > 100 µM (inactive). For the same compound, the GI50 (DU-145) was > 100 µM (inactive), the GI50 (NCI/ADR-RES) was > 100 µM (inactive) and the GI50 (LOX IMVI) was > 100 µM (inactive). For the same compound, the GI50 (OVCAR-5) was > 100 µM (inactive), the GI50 (UACC-257) was > 100 µM (inactive) and the GI50 (KM12) was > 100 µM (inactive). The GI50 (RXF 393) was > 100 µM (inactive), the GI50 (MOLT-4) was > 100 µM (inactive) and the GI50 (SK-MEL-5) was > 100 µM (inactive). For the same compound, the GI50 (SN12C) was > 100 µM (inactive), the GI50 (HCT-116) was > 100 µM (inactive) and the GI50 (A549) was > 100 µM (inactive). The GI50 (U-251) was > 100 µM (inactive), the GI50 (COLO 205) was > 100 µM (inactive) and the GI50 (K562) was > 100 µM (inactive). For the same compound, the GI50 (UO-31) was > 100 µM (inactive), the GI50 (IGROV-1) was > 100 µM (inactive) and the GI50 (UACC-62) was > 100 µM (inactive). For the same compound, the GI50 (SW-620) was > 100 µM (inactive), the GI50 (HT-29) was > 100 µM (inactive) and the GI50 (SNB-19) was > 100 µM (inactive). For the same compound, the GI50 (T47D) was > 100 µM (inactive), the GI50 (HCT-15) was greater than 100 µM and the GI50 (TK-10) was > 100 µM (inactive). For the same compound, the GI50 (786-0) was > 100 µM (inactive), the GI50 (MDA-MB-231) was > 100 µM (inactive) and the GI50 (BT-549) was > 100 µM (inactive). For the same compound, the GI50 (RPMI-8226) was > 100 µM (inactive), the GI50 (SF-539) was > 100 µM (inactive) and the GI50 (CAKI-1) was > 100 µM (inactive). The GI50 (MDA-N) was > 100 µM (inactive), the GI50 (A498) was > 100 µM (inactive) and the GI50 (SR) was > 100 µM (inactive). For the same compound, the GI50 (HCC 2998) was > 100 µM (inactive), the GI50 (PC-3) was > 100 µM (inactive) and the GI50 (OVCAR-8) was > 100 µM (inactive). The GI50 (HOP-62) was > 100 µM (inactive), the GI50 (HOP-92) was > 100 µM (inactive) and the GI50 (NCI-H226) was > 100 µM (inactive). The GI50 (HL-60) was > 100 µM (inactive), the GI50 (NCI-H460) was > 100 µM (inactive) and the GI50 (Malme-3M) was > 100 µM (inactive). The GI50 (EKVX) was > 100 µM (inactive), the GI50 (MCF7) was > 100 µM (inactive) and the GI50 (SF-268) was > 100 µM (inactive).

With `CCn1c2ccc(O)c(C(=O)OC)c2c2cc3ccccc3c(O)c21` the GI50 (MDA-MB-435) was 17 µM (inactive), the GI50 (OVCAR-4) was 18.1 µM (inactive) and the GI50 (SK-OV-3) was 10.5 µM (inactive). For the same compound, the GI50 (SF-295) was 27.5 µM (inactive), the GI50 (SK-MEL-2) was 13.7 µM (inactive) and the GI50 (Hs-578T) was 7.89 µM (inactive). For the same compound, the GI50 (ACHN) was 12.6 µM (inactive), the GI50 (NCI-H23) was 16.9 µM (inactive) and the GI50 (M14) was 20.7 µM (inactive). The GI50 (SK-MEL-28) was 26.2 µM (inactive), the GI50 (NCI-H522) was 18.3 µM (inactive) and the GI50 (OVCAR-3) was 14.5 µM (inactive). For the same compound, the GI50 (DU-145) was 14.5 µM (inactive), the GI50 (NCI/ADR-RES) was 19.8 µM (inactive) and the GI50 (OVCAR-5) was 32.3 µM (inactive). For the same compound, the GI50 (UACC-257) was 31.6 µM (inactive), the GI50 (KM12) was 15.3 µM (inactive) and the GI50 (RXF 393) was 31.2 µM (inactive). The GI50 (MOLT-4) was 7.87 µM (inactive), the GI50 (CCRF-CEM) was 19 µM (inactive) and the GI50 (SK-MEL-5) was 14.2 µM (inactive). For the same compound, the GI50 (SN12C) was 18.5 µM (inactive), the GI50 (HCT-116) was 12.6 µM (inactive) and the GI50 (A549) was 16.3 µM (inactive). For the same compound, the GI50 (U-251) was 18 µM (inactive), the GI50 (COLO 205) was 15.3 µM (inactive) and the GI50 (K562) was 27.9 µM (inactive). The GI50 (UO-31) was 22.5 µM (inactive), the GI50 (IGROV-1) was 8 µM (inactive) and the GI50 (UACC-62) was 23.2 µM (inactive). The GI50 (HT-29) was 18.5 µM (inactive), the GI50 (SNB-19) was 33 µM (inactive) and the GI50 (T47D) was 11.5 µM (inactive). For the same compound, the GI50 (HCT-15) was 15.3 µM, the GI50 (TK-10) was 15.9 µM (inactive) and the GI50 (786-0) was 12.3 µM (inactive). For the same compound, the GI50 (MDA-MB-231) was 23.2 µM (inactive), the GI50 (BT-549) was 15.2 µM (inactive) and the GI50 (RPMI-8226) was 10.2 µM (inactive). The GI50 (SF-539) was 18.7 µM (inactive), the GI50 (CAKI-1) was 13.4 µM (inactive) and the GI50 (MDA-N) was 20.5 µM (inactive). The GI50 (A498) was 13.1 µM (inactive), the GI50 (SR) was 17.4 µM (inactive) and the GI50 (HCC 2998) was 22.2 µM (inactive). For the same compound, the GI50 (PC-3) was 20.8 µM (inactive), the GI50 (OVCAR-8) was 17.4 µM (inactive) and the GI50 (HOP-62) was 20.2 µM (inactive). The GI50 (HOP-92) was 1.95 µM (inactive), the GI50 (NCI-H226) was 26.2 µM (inactive) and the GI50 (HL-60) was 20.1 µM (inactive). For the same compound, the GI50 (NCI-H460) was 14.2 µM (inactive), the GI50 (Malme-3M) was 2.72 µM (inactive) and the GI50 (EKVX) was 35 µM (inactive). For the same compound, the GI50 (MCF7) was 22.5 µM (inactive) and the GI50 (SF-268) was 16.3 µM (inactive).

For `COc1ccc([C@]23CCN4COC[C@@H]([C@H]42)C2(CC3)OCC(C)(C)CO2)cc1OC`, the GI50 (MDA-MB-435) was > 100 µM (inactive), the GI50 (OVCAR-4) was > 100 µM (inactive) and the GI50 (SK-OV-3) was > 100 µM (inactive). For the same compound, the GI50 (SF-295) was > 100 µM (inactive), the GI50 (SK-MEL-2) was > 100 µM (inactive) and the GI50 (Hs-578T) was > 100 µM (inactive). For the same compound, the GI50 (ACHN) was > 100 µM (inactive), the GI50 (NCI-H23) was > 100 µM (inactive) and the GI50 (M14) was > 100 µM (inactive). The GI50 (SK-MEL-28) was > 100 µM (inactive), the GI50 (NCI-H522) was > 100 µM (inactive) and the GI50 (DU-145) was > 100 µM (inactive). For the same compound, the GI50 (NCI/ADR-RES) was > 100 µM (inactive), the GI50 (LOX IMVI) was > 100 µM (inactive) and the GI50 (OVCAR-5) was > 100 µM (inactive). The GI50 (UACC-257) was > 100 µM (inactive), the GI50 (KM12) was > 100 µM (inactive) and the GI50 (RXF 393) was > 100 µM (inactive). For the same compound, the GI50 (MOLT-4) was > 100 µM (inactive), the GI50 (CCRF-CEM) was > 100 µM (inactive) and the GI50 (SK-MEL-5) was > 100 µM (inactive). For the same compound, the GI50 (SN12C) was > 100 µM (inactive), the GI50 (HCT-116) was > 100 µM (inactive) and the GI50 (SNB-75) was 53.3 µM (inactive). The GI50 (A549) was > 100 µM (inactive), the GI50 (U-251) was > 100 µM (inactive) and the GI50 (COLO 205) was > 100 µM (inactive). For the same compound, the GI50 (K562) was > 100 µM (inactive), the GI50 (UO-31) was > 100 µM (inactive) and the GI50 (IGROV-1) was > 100 µM (inactive). The GI50 (UACC-62) was > 100 µM (inactive), the GI50 (SW-620) was > 100 µM (inactive) and the GI50 (HT-29) was 89.7 µM (inactive). For the same compound, the GI50 (SNB-19) was > 100 µM (inactive), the GI50 (T47D) was 66.5 µM (inactive) and the GI50 (HCT-15) was greater than 100 µM. For the same compound, the GI50 (TK-10) was > 100 µM (inactive), the GI50 (786-0) was > 100 µM (inactive) and the GI50 (MDA-MB-231) was > 100 µM (inactive). For the same compound, the GI50 (BT-549) was > 100 µM (inactive), the GI50 (RPMI-8226) was > 100 µM (inactive) and the GI50 (CAKI-1) was > 100 µM (inactive). The GI50 (MDA-N) was > 100 µM (inactive), the GI50 (A498) was > 100 µM (inactive) and the GI50 (SR) was > 100 µM (inactive). For the same compound, the GI50 (HCC 2998) was > 100 µM (inactive), the GI50 (PC-3) was > 100 µM (inactive) and the GI50 (OVCAR-8) was > 100 µM (inactive). For the same compound, the GI50 (HOP-62) was > 100 µM (inactive), the GI50 (HOP-92) was 31.3 µM (inactive) and the GI50 (NCI-H226) was > 100 µM (inactive). For the same compound, the GI50 (HL-60) was > 100 µM (inactive), the GI50 (NCI-H460) was > 100 µM (inactive) and the GI50 (Malme-3M) was > 100 µM (inactive). For the same compound, the GI50 (EKVX) was > 100 µM (inactive), the GI50 (MCF7) was > 100 µM (inactive) and the GI50 (SF-268) was > 100 µM (inactive).

Source: ChEMBL document CHEMBL1201862, “PubChem BioAssay data set” (2004)
